The values below come from ChEMBL document CHEMBL6087451, “Design, Synthesis, and Biological Evaluation of 2-Arylaminopyrimidine Derivatives as Dual Cathepsin L and JAK Inhibitors for the Treatment of Acute Lung Injury” (J Med Chem, 2025).

As usually defined, the inhibition is the percentage by which the read-out fell short of the control.

What all share (assay type): functional
Common to all, as to conditions: Homo sapiens, time 24.5 hrs

A short description of assay [1]: (§1) Anti-inflammatory activity against HBE cells assessed as inhibition of LPS-induced IL-6 level at 5 uM pretreated for 30 mins followed by LPS treatment for 24 hrs by ELISA relative to control. (In an ELISA, binding on a coated surface is turned into a signal by an enzyme label.)
The nature of assay [2]: (§2) Anti-inflammatory activity against HBE cells assessed as inhibition of LPS-induced IL-8 level at 5 uM pretreated for 30 mins followed by LPS treatment for 24 hrs by ELISA relative to control.
Assay [3] has as its system HBE. Described as §1.
Assay [4] deals with HBE. The description is as §2.

The structures appear in SMILES notation. The source made the active and inactive calls. No cut-off for these calls is given here.

In the case of `COc1cccc(Nc2ccnc(Nc3cccc(N)c3)n2)c1`, the figures for the inhibition at 5 µM in assay [1] and in assay [2] were 54% and 56%, respectively.
Regarding `Cn1ccc(Nc2nccc(-c3cn(C)c4ccccc34)n2)n1`, the inhibition at 5 µM came out at 54% in assay [1] and 56% in assay [2].
On to `Nc1cccc(Nc2nccc(Oc3ccc(OC(F)(F)F)cc3)n2)c1`, for which the inhibition at 5 µM in assay [1] is 54%; in assay [2], 56%.
As for `CC(C)Nc1nccc(-c2cn(C)c3ccccc23)n1`, the inhibition result in the assay with HBE [3] and in the assay on HBE [4] was “inactive” in each case.
Consider `Nc1ccc(Oc2ccnc(Nc3cccc(N)c3)n2)cc1`, for which the inhibition at 5 µM in assay [1] came to 54%; in assay [2], 56%.
The like results for `Cn1cc(-c2ccnc(Nc3ccc(Cl)cc3)n2)c2ccccc21` were, in that order, 54% and 56%.
The like results for `Cn1cc(-c2ccnc(Nc3cc(N)ccc3F)n2)c2ccccc21` were, in that order, 69% and 83%.
The like results for `Nc1cccc(Nc2nccc(Nc3ccc(C(F)(F)F)cc3)n2)c1` were, in that order, 54% and 56%.
With `Cn1cc(-c2ccnc(Nc3cccc(C#N)c3)n2)c2ccccc21`, the figures for the inhibition at 5 µM in assay [1] and in assay [2] were 54% and 56%, respectively.
The like results for `Nc1cccc(Nc2nccc(Nc3ccc(F)cc3)n2)c1` were, in that order, 54% and 56%.
For `COc1cccc(Oc2ccnc(Nc3cccc(N)c3)n2)c1`, in that order: 54% and 56%.
The like results for `N#Cc1cccc(Nc2ccnc(Nc3cccc(N)c3)n2)c1` were, in that order, 54% and 56%.
Consider `Cn1nccc1Nc1nccc(-c2cn(C)c3ccccc23)n1`, for which the figures for the inhibition at 5 µM in assay [1] and in assay [2] were 54% and 64%, respectively.
Turning to `Nc1cccc(Nc2nccc(Oc3cccc(N)c3)n2)c1`, the inhibition at 5 µM amounted to 54% in assay [1] and 56% in assay [2].
For the molecule `Nc1cccc(Nc2nccc(Nc3cccc(Br)c3)n2)c1`, the inhibition at 5 µM came out at 54% in assay [1] and 56% in assay [2].
For `Nc1cccc(Nc2nccc(Sc3ccc(C(F)(F)F)cc3)n2)c1`, in that order: 54% and 56%.
Regarding `COc1ccccc1Nc1nccc(-c2cn(C)c3ccccc23)n1`, the inhibition at 5 µM in assay [1] was 38%. In addition, in the assay with HBE [4], the inhibition entry is “inactive”.
As to `COc1ccc(Nc2ccnc(Nc3cccc(N)c3)n2)cc1`, the inhibition at 5 µM came out at 54% in assay [1] and 56% in assay [2].
For `Cn1cc(-c2ccnc(Nc3cccc(C(=O)O)c3)n2)c2ccccc21`, in that order: 54% and 56%.
For `Nc1cccc(Nc2nccc(Sc3ccc(Br)cc3)n2)c1`, in that order: 54% and 56%.
In the case of `Cc1ccc(Oc2nccc(-c3cn(C)c4ccccc34)n2)cc1`, the inhibition entry in the assay with HBE [3] and with HBE [4] was “inactive” throughout.
Turning to `Nc1cccc(Nc2nccc(Sc3ccc(Cl)cc3)n2)c1`, the inhibition at 5 µM came out at 54% in assay [1] and 56% in assay [2].
Turning to `Nc1cccc(Nc2nccc(Nc3ccccc3)n2)c1`, the inhibition at 5 µM was found to be 54% in assay [1] and 56% in assay [2].
For `Cn1cc(-c2ccnc(Nc3ccc(C(F)(F)F)cc3)n2)c2ccccc21`, the inhibition at 5 µM in assay [1] came to 54%; in assay [2], 56%.
For `COc1ccc(Sc2ccnc(Nc3cccc(N)c3)n2)cc1`, the inhibition at 5 µM in assay [1] turned out to be 54%; in assay [2], 56%.
For `Cn1cc(-c2ccnc(Nc3ncccn3)n2)c2ccccc21`, the inhibition result in the assay on HBE [3] is “inactive”. Moreover, the inhibition at 5 µM in assay [2] was 12%.
Consider `Cn1cc(-c2ccnc(NC3CCCCC3)n2)c2ccccc21`, for which the inhibition entry in the assay on HBE [3] and in the assay on HBE [4] was “inactive” in each case.
Take `Nc1cccc(Nc2nccc(Nc3cccc(F)c3)n2)c1`: the inhibition at 5 µM in assay [1] is 54%; in assay [2], 56%.
As to `Nc1cccc(Nc2nccc(Nc3ccc4[nH]ccc4c3)n2)c1`, the inhibition at 5 µM in assay [1] and in assay [2] was more than 65% throughout.
With `CC(C)(C)c1ccc(Nc2ccnc(Nc3cccc(N)c3)n2)cc1`, the inhibition at 5 µM in assay [1] was 54%; in assay [2] it was 56%.
For `Nc1cccc(Nc2nccc(Oc3ccc4[nH]ccc4c3)n2)c1`, in that order: more than 65% and more than 65%.
The like results for `COc1ccccc1Nc1ccnc(Nc2cccc(N)c2)n1` were, in that order, 54% and 56%.
The like results for `COc1cccc(OC)c1Nc1ccnc(Nc2cccc(N)c2)n1` were, in that order, 54% and 56%.
In the case of `Cn1cc(-c2ccnc(Nc3ccccc3N)n2)c2ccccc21`, the inhibition at 5 µM in assay [1] came out at 61%; in assay [2], 69%.
The like results for `Nc1cccc(Nc2nccc(Sc3ccc(F)cc3)n2)c1` were, in that order, 54% and 56%.
The like results for `Nc1cccc(Nc2nccc(Nc3cccc(Cl)c3)n2)c1` were, in that order, 54% and 56%.
The like results for `COc1ccc(Nc2nccc(-c3cn(C)c4ccccc34)n2)cc1` were, in that order, 54% and 56%.
Consider `Cn1cc(-c2ccnc(Nc3cccc(CC(=O)O)c3)n2)c2ccccc21`, for which the inhibition at 5 µM in assay [1] was determined as 54%; in assay [2] it was 56%.
For `Cc1cccc(Nc2ccnc(Nc3cccc(N)c3)n2)c1C`, in that order: 54% and 56%.
For the molecule `Cn1cc(-c2ccnc(Nc3ccc(N)cc3)n2)c2ccccc21`, the results for the inhibition at 5 µM in assay [1] and in assay [2] were 54% and 56%, respectively.
The like results for `Cc1ccc(Nc2ccnc(Nc3cccc(N)c3)n2)c(C)c1` were, in that order, 54% and 56%.
Turning to `COc1ccc(C)cc1Nc1ccnc(Nc2cccc(N)c2)n1`, the results for the inhibition at 5 µM in assay [1] and in assay [2] were 54% and 56%, respectively.
The like results for `COc1cccc(Nc2nccc(-c3cn(C)c4ccccc34)n2)c1` were, in that order, 54% and 56%.
The like results for `Nc1cccc(Nc2nccc(Nc3ccc(Cl)cc3)n2)c1` were, in that order, 54% and 56%.
With `Nc1cccc(Nc2nccc(Nc3cccc(C(F)(F)F)c3)n2)c1`, the inhibition at 5 µM turned out to be 54% in assay [1] and 56% in assay [2].
Regarding `Cc1ccccc1Nc1ccnc(Nc2cccc(N)c2)n1`, the figures for the inhibition at 5 µM in assay [1] and in assay [2] were 54% and 56%, respectively.
As to `Cn1cc(-c2ccnc(Nc3ccc(F)cc3)n2)c2ccccc21`, the results for the inhibition at 5 µM in assay [1] and in assay [2] were 54% and 56%, respectively.
Turning to `COc1ccc(OC)c(Nc2ccnc(Nc3cccc(N)c3)n2)c1`, the inhibition at 5 µM in assay [1] was 54%; in assay [2], 56%.
For `Cn1cc(-c2ccnc(Nc3cccc(C(F)(F)F)c3)n2)c2ccccc21`, the inhibition at 5 µM in assay [1] amounted to 54%; in assay [2] it was 56%.
The like results for `Cn1cc(-c2ccnc(Nc3cccc(Cl)c3)n2)c2ccccc21` were, in that order, 54% and 56%.
For `COc1cccc(Nc2ccnc(Nc3cccc(N)c3)n2)c1OC`, in that order: 54% and 56%.
Turning to `Cn1cc(-c2ccnc(Nc3ccc(F)c(N)c3)n2)c2ccccc21`, the results for the inhibition at 5 µM in assay [1] and in assay [2] were 54% and 56%, respectively.
For `COc1ccc(N)cc1Nc1nccc(-c2cn(C)c3ccccc23)n1`, in that order: 64% and 54%.
As to `Cn1cc(-c2ccnc(Nc3ccc(Cl)c(N)c3)n2)c2ccccc21`, the inhibition at 5 µM in assay [1] was 54%; in assay [2], 56%.
The like results for `COc1ccc(Oc2ccnc(Nc3cccc(N)c3)n2)cc1OC` were, in that order, 54% and 56%.
For `Cn1cc(-c2ccnc(Nc3cccc(O)c3)n2)c2ccccc21`, in that order: 54% and 56%.
The like results for `Nc1cccc(Nc2nccc(Nc3ccc(F)c(F)c3)n2)c1` were, in that order, 54% and 56%.
Regarding `COc1ccc(Nc2ccnc(Nc3cccc(N)c3)n2)c(OC)c1`, the inhibition at 5 µM in assay [1] came out at 54%; in assay [2], 56%.
Consider `Nc1cccc(Nc2nccc(N)n2)c1`, for which the inhibition result with HBE [3] and with HBE [4] was “inactive” each time.
Regarding `Nc1cccc(Nc2nccc(Nc3ccc(Br)cc3)n2)c1`, the figures for the inhibition at 5 µM in assay [1] and in assay [2] were 54% and 56%, respectively.
As to `CN(c1cccc(N)c1)c1nccc(-c2cn(C)c3ccccc23)n1`, the inhibition entry in the assay with HBE [3] and with HBE [4] was “inactive” each time.
Turning to `Cn1cc(-c2ccnc(Nc3cccc(F)c3)n2)c2ccccc21`, the inhibition at 5 µM came out at 54% in assay [1] and 56% in assay [2].
For `COc1c(Br)cccc1Nc1ccnc(Nc2cccc(N)c2)n1`, the results for the inhibition at 5 µM in assay [1] and in assay [2] were 54% and 56%, respectively.
Regarding `Cn1cc(-c2ccnc(Nc3ccccc3)n2)c2ccccc21`, the inhibition at 5 µM in assay [1] was found to be 85%. In addition, the inhibition entry with HBE [4] was “inactive”.
Consider `CCOc1ccc(Nc2ccnc(Nc3cccc(N)c3)n2)cc1`, for which the inhibition at 5 µM in assay [1] is 54%; in assay [2], 56%.
For `Nc1cccc(Nc2nccc(Oc3ccccc3)n2)c1`, in that order: 54% and 56%.
For `COc1ccccc1Oc1ccnc(Nc2cccc(N)c2)n1`, in that order: 54% and 56%.
The like results for `COc1cc(OC)cc(Oc2ccnc(Nc3cccc(N)c3)n2)c1` were, in that order, 54% and 56%.
Take `Cn1cc(-c2ccnc(N)n2)c2ccccc21`: the inhibition at 5 µM was determined as 37% in assay [1] and 38% in assay [2].
